Where a SMILES comes first, the peptide text is derived from it. Bridges are numbered along the chain shown (N, C = ends).
Tests used:
IDE = target: T1, IDE (Homo sapiens, UniProt P14735); test: IDE protease activity assay with FRET1 substrate; type: biochemical; settings: Ki converted from IC50 with the Cheng-Prusoff equation
T1 construct: made in house; host or cells: bacteria
T1 sequence (P14735 1-1019): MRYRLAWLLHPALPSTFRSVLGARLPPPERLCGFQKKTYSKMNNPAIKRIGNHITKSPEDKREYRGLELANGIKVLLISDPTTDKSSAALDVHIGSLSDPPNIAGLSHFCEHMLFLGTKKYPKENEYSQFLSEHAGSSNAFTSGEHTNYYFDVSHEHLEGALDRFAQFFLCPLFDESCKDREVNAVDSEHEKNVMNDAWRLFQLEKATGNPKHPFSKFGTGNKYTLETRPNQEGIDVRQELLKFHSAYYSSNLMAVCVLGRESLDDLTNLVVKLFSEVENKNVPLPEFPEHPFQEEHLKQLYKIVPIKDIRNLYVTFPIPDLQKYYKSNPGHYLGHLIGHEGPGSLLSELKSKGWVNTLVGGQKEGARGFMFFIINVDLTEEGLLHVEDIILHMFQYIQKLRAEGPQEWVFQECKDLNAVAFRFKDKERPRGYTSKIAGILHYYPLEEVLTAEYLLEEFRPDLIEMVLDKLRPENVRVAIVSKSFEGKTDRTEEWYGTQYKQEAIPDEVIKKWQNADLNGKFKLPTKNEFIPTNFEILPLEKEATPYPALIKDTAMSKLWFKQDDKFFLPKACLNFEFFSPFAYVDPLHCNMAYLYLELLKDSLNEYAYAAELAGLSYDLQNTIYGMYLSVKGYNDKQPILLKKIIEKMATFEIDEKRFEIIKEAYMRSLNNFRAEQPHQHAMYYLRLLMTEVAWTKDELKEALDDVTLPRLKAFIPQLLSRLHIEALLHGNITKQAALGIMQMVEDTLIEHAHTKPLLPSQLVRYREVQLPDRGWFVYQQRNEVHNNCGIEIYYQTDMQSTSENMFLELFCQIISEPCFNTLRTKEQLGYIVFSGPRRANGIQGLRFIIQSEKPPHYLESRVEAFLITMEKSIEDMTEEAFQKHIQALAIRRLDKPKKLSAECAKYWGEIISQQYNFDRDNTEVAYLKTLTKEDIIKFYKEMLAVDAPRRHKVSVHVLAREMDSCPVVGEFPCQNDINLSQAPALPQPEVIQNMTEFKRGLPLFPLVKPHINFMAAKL

[1] = system: primary murine skin fibroblasts; test: Western blotting of cell-associated mature alpha-1 type I collagen; type: cell-based, mouse; settings: P12-3A 100 μM
Experimental: (§1) FIG. 4A-F. Effects of P12-3A on cultured skin cells. A, Insulin concentrations as a function of time in logarithmically growing primary murine skin fibroblasts in the absence or presence of P12-3A (100 μM). […] Data are mean±SEM of 4 independent replications. *P<0.05, **P<0.01. B, Proliferation of cells in the absence or presence of P12-3A (100 μM). […] C,D,E, P12-3A (100 μM) potentiates insulin-induced collagen production in skin fibroblasts. Collagen production was assessed by COL1A1 mRNA levels (C), levels of hydroxyproline secreted into the medium (D), and cell-associated mature alpha-1 type I collagen levels detected by Western blotting (E). […] Migration of HaCaT cells 48 h after induction of a scratch wound in the presence of the indicated quantities of insulin and/or P12-3A (100 μM). […]
(§2) Insulin promotes wound healing and overall skin health by affecting a number of processes, including cell proliferation (2,3), cell migration (5,6), and the production and secretion of ECM components, particularly type I collagen (7-13). We therefore assessed the ability of P12-3A to influence these processes in cultured skin fibroblasts and keratinocytes. To that end, primary mouse skin fibroblasts were grown for 4 d in multiple concentrations of insulin in the presence or absence of P12-3A, and insulin concentration over time was monitored by ELISA. […]

[2] = system: alpha-1 type I collagen (COL1A1) mRNA in primary murine skin fibroblasts; test: COL1A1 mRNA quantification by RT-PCR; type: cell-based, mouse; settings: P12-3A 100 μM, 4 d, confluent monolayers
Experimental: as §1, §2

Ki (IDE): 10 ± 0.4 µM
Compound: CC(C)C[C@H](NC(=O)[C@H](CO)NC(=O)[C@@H](N)CCC(N)=O)C(=O)N1CCC[C@H]1C(=O)N[C@@H](Cc1c[nH]c2ccccc12)C(=O)N[C@H]1CSSC[C@@H](C(=O)N[C@H](C(=O)N[C@H](C(N)=O)[C@@H](C)O)C(C)C)NC(=O)[C@H](Cc2c[nH]cn2)NC(=O)[C@@H]2CCCN2C(=O)[C@H](Cc2ccc(O)cc2)NC1=O [Peptide P12-3A] (H-QSLPWCYPHCVT-NH2; disulfide 6-10 (inferred))
mature, cell-associated collagen levels [1]: increased
COL1A1 mRNA levels [2]: ~2.6 times the levels of untreated cells

From patent publication US11555055B2, “Peptide inhibitors of insulin-degrading enzyme” (The Regents of the University of California, priority 2017, dated 2023)
